How the values were obtained:
CD4+Foxp3+ Tregs = assay: Human MoDC - syngeneic CD4+ T cell co-culture; assay type: cell-based; conditions: cells from most subjects, regardless of genotype
Experimental: To generate monocyte-derived dendritic cell (MoDCs), human PBMCs were isolated from fresh whole blood the same day of harvest using Ficoll-Hypaque (GE Healthcare) gradient (density=1.070 g/ml), followed by monocyte enrichment using the Human Monocyte Isolation Kit II (Miltenyi). For differentiation into MoDCs, monocytes were incubated with recombinant human IL-4 and GM-CSF (Peprotech) every two days in complete RPMI 1640 (5% human AB serum, 50 U/ml penicillin, 50 μg/ml streptomycin, 2 mM L-glutamine, 1 mM sodium pyruvate, 1 mM HEPES, non-essential amino acids, […]). […]
(§1) Cells were incubated in 5% mouse serum for 15 min and stained for 20 min at 4° C. with either LIVE/DEAD fixable green or far red dead stain kit (Life Technologies), with empirically titrated concentrations of the following antibodies: PerCP-Cy5.5-conjugated anti-mouse CD4 (clone: RM4-5), PerCP-Cy5.5-conjugated anti-human CD4 (clone: OKT4), and/or PE-Cy7-conjugated anti-mouse CD4 (clone: RM4-5). […] Cell acquisition was performed on a BD FACS Calibur (BD Biosciences) or Miltenyi MACSQuant (Miltenyi), and data was analyzed using FlowJo software suite (TreeStar). For ELISAs, cell supernatant from in vitro DC-T cell co-culture were collected and mouse IL-10 and IL-17A were measured using commercially available kits (eBiosciences).

[1] = tested on: CD4+Foxp3+ regulatory T cells (Tregs); assay: In vitro DC-T cell co-culture: pulsed BMDCs co-cultured with CD4+ T cells; assay type: cell-based, mouse
Experimental: Co-culture of bone marrow-derived dendritic cells (BMDCs) and CD4^+ T cells were performed as previously described (30, 32, 36). Briefly, BMDCs were generated from bone marrow progenitor cells isolated from femurs of WT or Atg16L1^ΔCD11c mice in the presence of 20 ng/ml GM-CSF (Miltenyi) in complete RPMI media 1640 (10% fetal bovine serum, 50 U/ml penicillin, 50 μg/ml streptomycin, 2 mM L-glutamine, 1 mM sodium pyruvate, 1 mM HEPES, and non-essential amino acids, and β-mercaptoethanol). BMDCs were pulsed with PBS, WT-OMVs (10 μg/ml), ΔPSA-OMVs (10 μg/ml) or pure PSA (50 μg/ml) for 18-22 hrs; OMVs with a protein content of 10 μg contain 50 μg of PSA. […]
as §1

[2] = tested on: LC3-associated phagocytosis (LAP); assay: LC3-GFP accumulation in BMDCs (LAP activation); assay type: cell-based, mouse; conditions: Rubicon+/- BMDCs
Experimental: Quantification of LC3-GFP accumulation upon 2 h treatment of BMDCs with PBS, B. fragilis WT-OMV, ΔPSA-OMV or purified PSA in Rubicon^+/− or Rubicon^−/− DCs. Error bars represent S.E.M. **** p<0.0001. Data are representative of 3 independent experiments.

[3] = tested on: CD4+CD25- responder effector T cells (Teff); assay: In vitro T cell suppression assay; assay type: cell-based, mouse; conditions: Tregs from co-cultures with Atg16L1ΔCD11c BMDCs
Experimental: CD4^+CD25^+ Treg cells were purified from in vitro BMDC-T cell co-cultures using magnetic microbeads (Miltenyi). CD4^+CD25^− responder effector T cells (Teff) were isolated from mouse spleens, labeled with 2.5 μM CFSE for 10 min at 37° C. in the dark, washed, and incubated with Treg cells at various Treg:Teff ratios in the presence of 1 μg/ml anti-mouse CD3 (eBiosciences). Irradiated CD4-depleted mouse splenocytes served as antigen-presenting cells. Cultures were incubated for 48 and 72 hrs, cells were stained with specific antibodies and a viability dye, and analyzed by flow cytometry. Dilution of CFSE signal is a measure of proliferation, and inhibition of proliferation a measure of Treg activity.

Substance: Polysaccharide A [PSA]
- Response (IL-10 among CD4+Foxp3+ Tregs) (CD4+Foxp3+ Tregs): respond to purified PSA
- IL-10 production ([1]; ATG16L1-deficient (Atg16L1ΔCD11c) DCs): does not require ATG16L1 for its activity
- IL-10 production among CD4+Foxp3- type 1 regulatory T cells ([1]; WT or Atg16L1ΔCD11c DCs): Neither WT-OMVs nor pure PSA have any effect
- Accumulation of membrane-bound LC3-GFP (LC3-II) / LAP activation [2]: neither APSA-OMVs nor purified PSA are able to activate LAP
- Treg suppressive activity [3]: does not require ATG16L1 to promote suppressive Treg activity

From patent publication US10357556B2, “Methods and compositions for T cell generation and uses thereof” (priority 2016, dated 2019)
